Data taken from patent US20090137811A1 (published 2009).
Values joined by “and” are separate entries in the source; they are usually repeats but may differ in a detail not shown here. Identical values can stand only once.

melting point: 204 to 207 °C and 203 to 206 °C
SMILES: COc1cc2c(cc1OC)C(=O)C(C(=O)c1ccncc1)C2 (stereo not shown)
